Measured values from patent US7767240B2, “Microbiological control in poultry processing” (priority 2001, dated 2010).

Key:
Format in all cases: cell-based
[1] = tested on: Escherichia coli field strain; experiment: Whole bird bacteria reduction, chill tank (Example 2); settings: 1.5 h chill tank
Protocol: The trial events and experimental design used were as follows: • a) For all treatments a total of 190 birds were processed in a normal fashion. Each treatment involved use of 10 birds. • b) A warm (100° F.) bath was prepared containing 5×10^4 DelMarVa (Delaware-Maryland farm area) field Escherichia coli stain bacteria per mL. At least 200 mL of total bath fluid was provided for each bird. • c) All birds (both controls and treated) were randomly immersed into the warm bath. Both the inside and outside carcass areas were immersed to assure complete coverage. • d) Each separate chill tank water solution (normal tap water adjusted pH to 8.5, ice added to produce temperatures of <45° F.) contained 2×10^3 per mL bacteria. • e) The chill tank water solutions (at least 750 mL each) were be prepared for each disinfecting treatment, and birds were immersed for a period of 1.5 hours. • f) Each 10 minutes during the 1.5 hour chilling period, the birds were completely lifted out of solution and then reimersed in the solution. After the 1.5 hour chilling period, the birds were taken from the chill water and drained for 30 seconds, then promptly (within 5 minutes) placed into a sterile whole bird stomacher bag containing 400 mL diluent (Butterfield's Phosphate Diluent) bacteria collection. • g) Diluent (400 mL) was added to each carcass contained in a sterile stomacher bag while making sure to pour the diluent into the inside of the abdominal cavity. The carcass was rinsed inside and out with a rocking motion for one minute (ca. 35 RPM). […] After the fluids had been diluted, 0.1 mL of fluid was be placed on a MacConkey agar plate and bacteria counts determined. In cases where the goal of a 25-250 count on the plate was not achieved, another dilution and replating were conducted. • j) After all carcasses for each treatment had been dipped, water sample bacteria were determined. • k) Total bacteria per bird were calculated. […]

[2] = tested on: S. sonnei, L. monocytogenes, E. coli, S. enteritidis, P. aeruginosa, C. jejuni; experiment: Mean % reduction from control over the six organisms (Example 3); settings: pH 8
Protocol: (§1) This group of tests was conducted to determine the effect of Clorox® bleach, Aquatize® biocide, and 1,3-dibromo-5,5-dimethylhydantoin (DBDMH) on carcass bacteria (Escherichia coli field strain) residual after 1,5-hour in a chill tank “soup”. Tests were conducted with soups at pH 7, pH 8 and pH 9 (adjusted by trisodium phosphate) for whole bird bacteria counts. Tests at pH 8 were conducted for individual bacteria counts.
(§2) In general the tests involved normal processing of 56-day-old birds and immersing the carcasses first in a warm bath containing 10^4 per mL Escherichia coli, 10^4 per mL Salmonella enteritidis, 10^4 per mL Pseudomonas aeruginosa, 10^4 per mL Campylobacter jejuni, and 10^4 per mL spoilage bacteria each from […] strains (Listeria monocytogenes and Shigella sonnei). The carcasses were then immersed in a chill tank “soup”, containing normal organic fluids (blood, fat, skin, and meat particles) and containing the microbiocides on the test.
The procedure used for whole bird wash sampling was as follows: • 1. All samples were kept at ≦50 degrees Fahrenheit following collection. • 2. Microbiological analyses of samples began within 24 hours of sample collection. • 3. Information on the individual sample identification, date of collection, time of collection (phase during shift), treatment group and location of sample point were recorded on each sample bottle. • 4. […]

total aerobic bacteria = experiment: Whole bird total aerobic bacteria, chill tank soup at pH 7, 8, 9 (Example 3); settings: 50 birds per treatment
Protocol: as §1, §2
The procedure used for whole bird wash sampling was as follows: • 1. All samples were kept at ≦50 degrees Fahrenheit following collection. • 2. Microbiological analyses of samples began within 24 hours of sample collection. • 3. Information on the individual sample identification, date of collection, time of collection (phase during shift), treatment group and location of sample point were recorded on each sample bottle. • 4. At each defined sample time, carcasses were taken individually from the processing line wearing latex or rubber gloves. The gloves were rinsed with alcohol between each collection. • 5. Any excess fluid was drained off from the carcass. Each individual carcass was transferred to a sterile stomacher bag. • 6. To each carcass contained in the sterile stomacher bag, 400 mL of Butterfield's Phosphate Diluent (BPD) was added while making sure to pour the BPD into the inside of the carcass cavity. The carcass was rinsed inside and out with a rocking motion for one minute (ca. 35 RPM). This was best done by grasping the broiler carcass with one hand and the closed top of the bag with the other then rocking with a reciprocal motion in a 18-24 inch arc, assuring that all surfaces (interior and exterior of the carcass) were rinsed. • 7. The rinse solutions from each stomacher bag was transferred into the sample bottles, taking care to ensure that the information on the date of collection, time of collection (phase during shift), treatment group and location of sampler point matched that of the sample. • 8. Each bottle was sealed with parafilm and placed into a styrene container with crushed or dry ice or frozen freezer packs for overnight delivery to a testing laboratory. • 9. All filled styrene containers were held in a chilled (not below freezing) area until within 1 to 2 hours of courier collection for shipment.
Aerobic plate counts—Counting rules according to BAM 8th ed., Chapter 3.
In greater detail the trial events and experimental design used in this group of tests were as follows: • a) Test microorganisms used were: • Escherichia coli ATCC 11229 • Pseudomonas aeruginosa ATCC 15442 • Salmonella enteritidis ATCC 13076 • Shigella sonnei ATCC 9290 • Listeria monocytogenes ATCC 7644 • Campylobacter jejuni ATCC 29428 • b) Test Procedure: All test strains were grown individually at 35° C. for 24 hours in the media specified in Table 12. Cells were harvested by centrifugation at 10,000×g for 10 minutes and washed twice with Butterfield's Phosphate Buffer (BPB of pH 7.2). Cells were resuspended in BPB to obtain a cell suspension of approximately 1.0×10^8 CFU/mL for each microorganism. The target inoculum levels were approximately 10^6 CFU/mL in the final test solutions. In the cases of S. enteritidis and P. aeruginosa the species were washed by pouring into prepared sterile centrifuge tubes with cheesecloth filters. […]

In the case of `CC1(C)C(=O)N(Br)C(=O)N1Br` [DBDMH, 1,3-dibromo-5,5-dimethylhydantoin], the “Whole Bird Bacteria Reduction (%)” value ([1]; 50 ppm Cl2 (equivalent)) is reported as 99.9999%, the “Whole Bird Bacteria Reduction (%)” value ([1]; 100 ppm Cl2 (equivalent)) is reported as 99.9999% and the “Whole Bird Bacteria Reduction (%)” value ([1]; 150 ppm Cl2 (equivalent)) is reported as 99.9999%. For the same molecule, the “Mean % Reduction From Control” value ([2]; 10 ppm) was 85.8%, the “Mean % Reduction From Control” value ([2]; 20 ppm) was 98.8% and the “Whole Bird Total Aerobic Bacteria (% Reduction)” value (total aerobic bacteria; Water pH 7, 10 ppm Cl2 equivalent) was 85%. For the same molecule, the “Whole Bird Total Aerobic Bacteria (% Reduction)” value (total aerobic bacteria; Water pH 7, 20 ppm Cl2 equivalent) was 99%, the “Whole Bird Total Aerobic Bacteria (% Reduction)” value (total aerobic bacteria; Water pH 8, 10 ppm Cl2 equivalent) was 82% and the “Whole Bird Total Aerobic Bacteria (% Reduction)” value (total aerobic bacteria; Water pH 8, 20 ppm Cl2 equivalent) was 98%. The “Whole Bird Total Aerobic Bacteria (% Reduction)” value (total aerobic bacteria; Water pH 9, 10 ppm Cl2 equivalent) was 78% and the “Whole Bird Total Aerobic Bacteria (% Reduction)” value (total aerobic bacteria; Water pH 9, 20 ppm Cl2 equivalent) was 96%.
